# In the supplement of paper PMC10331698:
# ± gives the standard deviation of the averaged measurements.
# Key:
# Assay in all cases: level (log10 ratio to DMSO vehicle control); higher = higher biomarker level / cell amount than vehicle control
# [1] = compound: C[C@@H]1C[C@H]2[C@@H]3CCC4=CC(=O)C=C[C@]4(C)[C@@]3(F)[C@@H](O)C[C@]2(C)[C@@]1(O)C(=O)COP(=O)(O)O [Dexamethasone sodium phosphate] (in DMSO)
# Description: (§1)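 BioMAP Diversity Plus panel of 12 human primary cell co-culture systems (3C, 4H, LPS, SAg, BT, BF4T, BE3C, CASM3C, HDF3CGF, KF3CT, MyoF, Mphg). Compounds were added 1 h before stimulation and left for 24 h (MyoF 48 h; BT 72 h for soluble read-outs or 6 d for IgG). Biomarkers were read by ELISA, cytotoxicity by SRB, PBMC viability and proliferation by Alamar Blue. Each well value was divided by the mean of 8 DMSO control wells on the same plate and log10 transformed; duplicate blinded samples were tested at 4 concentrations.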
# [2] = compound: O=C(O)C(F)(F)C(F)(F)C(F)(F)C(F)(F)C(=O)O [Octafluoroadipic acid] (in DMSO)
# Description: as §1
# [3] = compound: O=C(O)C(F)(OC(F)(F)C(F)(F)C(F)(F)F)C(F)(F)F [Ammonium perfluoro-2-methyl-3-oxahexanoate] (in Water)
# Description: as §1
# [4] = compound: O=S(=O)(O)C(F)(F)C(F)(F)C(F)(F)C(F)(F)C(F)(F)C(F)(F)C(F)(F)F [Perfluoroheptanesulfonic acid] (in DMSO)
# Description: as §1
# [5] = compound: O=S(=O)(O)CCC(F)(F)C(F)(F)C(F)(F)C(F)(F)C(F)(F)C(F)(F)C(F)(F)C(F)(F)F [8:2 Fluorotelomer sulfonic acid] (in DMSO)
# Description: as §1
# [6] = compound: OCC(F)(F)OC(F)(F)C(F)(F)OC(F)(F)C(F)(F)OC(F)(F)CO [1H,1H,11H,11H-Perfluorotetraethylene glycol] (in DMSO)
# Description: as §1
Test System,level (log10) ([1]; 1500 nM),level (log10) ([1]; 4400 nM),level (log10) ([1]; 13000 nM),level (log10) ([1]; 40000 nM),level (log10) ([2]; 6700 nM),level (log10) ([2]; 20000 nM),level (log10) ([2]; 60000 nM),level (log10) ([3]; 6700 nM),level (log10) ([3]; 20000 nM),level (log10) ([3]; 60000 nM),level (log10) ([4]; 1500 nM),level (log10) ([4]; 4400 nM),level (log10) ([4]; 13000 nM),level (log10) ([4]; 40000 nM),level (log10) ([5]; 6700 nM),level (log10) ([5]; 20000 nM),level (log10) ([5]; 60000 nM),level (log10) ([6]; 6700 nM),level (log10) ([6]; 20000 nM),level (log10) ([6]; 60000 nM)
3C:CCL2/MCP-1,0.012 ± 0.013,-0.0125 ± 0.005,-0.0155 ± 0.00071,-0.004 ± 0.013,-0.0115 ± 0.0064,-0.0105 ± 0.011,0.0135 ± 0.036,-0.003 ± 0.0085,-0.004 ± 0.016,0.056 ± 0.05,-0.0035 ± 0.005,-0.0065 ± 0.0021,0.002 ± 0.0014,0.01 ± 0.0014,-0.01 ± 0.0085,-0.0335 ± 0.021,-0.0185 ± 0.005,-0.001 ± 0.018,-0.005 ± 0.027,-0.015 ± 0.0057
3C:CD54/ICAM-1,-0.006 ± 0.04,-0.019 ± 0.013,-0.0145 ± 0.022,-0.0125 ± 0.00071,-0.007 ± 0.014,-0.0075 ± 0.018,-0.0065 ± 0.013,-0.0255 ± 0.0092,0.0065 ± 0.00071,0.0055 ± 0.011,0.0085 ± 0.005,-0.003 ± 0.0042,-0.001 ± 0.013,-0.0015 ± 0.0021,-0.008 ± 0.0099,0.003 ± 0.013,0.034 ± 0.0042,0.0015 ± 0.00071,-0.009 ± 0.0071,0.007
3C:CD62E/E-Selectin,-0.0055 ± 0.011,-0.024 ± 0.024,-0.005 ± 0.024,0.0005 ± 0.0078,-0.029 ± 0.0071,-0.004 ± 0.016,-0.0205 ± 0.0078,0.0025 ± 0.005,0.0105 ± 0.011,0.011 ± 0.011,-0.01 ± 0.021,-0.018,-0.024 ± 0.017,0.005 ± 0.0014,0.013 ± 0.025,0.0385 ± 0.0021,0.0715 ± 0.0078,-0.0145 ± 0.029,-0.008 ± 0.038,-0.0375 ± 0.036
3C:CD106/VCAM-1,0.0035 ± 0.043,-0.009 ± 0.016,-0.031 ± 0.017,-0.0265 ± 0.0064,0.0005 ± 0.019,-0.0015 ± 0.0092,0.0055 ± 0.00071,-0.0065 ± 0.0035,-0.0245 ± 0.0035,-0.0155 ± 0.00071,0.001 ± 0.0042,-0.011 ± 0.0014,-0.016 ± 0.0028,-0.0185 ± 0.00071,0.002 ± 0.0014,0.009 ± 0.0028,0.019 ± 0.016,-0.01 ± 0.0057,-0.015 ± 0.0071,-0.004 ± 0.011
3C:CD141/Thrombomodulin,0.0105 ± 0.074,-0.015 ± 0.052,-0.0055 ± 0.04,-0.045 ± 0.062,0.0125 ± 0.025,0.016 ± 0.03,0.0195 ± 0.05,-0.0395 ± 0.03,-0.0315 ± 0.011,-0.057 ± 0.0028,0.014 ± 0.013,-0.0085 ± 0.028,-0.035 ± 0.064,-0.042 ± 0.028,-0.003 ± 0.024,-0.011 ± 0.034,0.0285 ± 0.037,-0.0145 ± 0.039,0.005 ± 0.028,0.051 ± 0.021
3C:CD142/Tissue Factor,0.034 ± 0.038,0.0265 ± 0.015,0.0335 ± 0.0078,0.0775 ± 0.028,0.02 ± 0.061,0.0375 ± 0.067,0.0085 ± 0.061,0.0735 ± 0.012,0.0805 ± 0.0078,0.0805 ± 0.00071,0.0375 ± 0.011,0.021 ± 0.031,0.048 ± 0.048,0.0665 ± 0.1,-0.018 ± 0.065,0.001 ± 0.052,-0.0295 ± 0.046,-0.0315 ± 0.037,-0.009 ± 0.0014,-0.013 ± 0.05
BE3C:Keratin 8/18,0.0045 ± 0.012,0.0035 ± 0.00071,-0.025 ± 0.0042,-0.0165 ± 0.0064,-0.0095 ± 0.0078,-0.0105 ± 0.025,0.0095 ± 0.0021,-0.042 ± 0.0042,-0.019 ± 0.024,-0.0165 ± 0.0092,-0.013 ± 0.035,-0.0065 ± 0.037,-0.015 ± 0.033,-0.0185 ± 0.033,0.007 ± 0.0042,0.017 ± 0.0085,0.043 ± 0.014,0.0025 ± 0.049,-0.0065 ± 0.00071,-0.023 ± 0.025
BE3C:MMP-1,-0.113 ± 0.059,-0.0825 ± 0.11,-0.137 ± 0.052,-0.141 ± 0.069,-0.0145 ± 0.025,-0.0205 ± 0.037,0.0155 ± 0.0021,0.0325 ± 0.032,0.062 ± 0.038,0.136 ± 0.013,0.011 ± 0.018,0.019 ± 0.023,0.05 ± 0.021,0.133 ± 0.022,0.048 ± 0.024,0.1715 ± 0.00071,0.232 ± 0.027,-0.001 ± 0.0057,0.022,0.0915 ± 0.057
BE3C:MMP-9,-0.02 ± 0.0028,-0.0185 ± 0.013,-0.013 ± 0.0028,-0.036 ± 0.0099,-0.0065 ± 0.022,-0.002 ± 0.016,0.0065 ± 0.0064,-0.109 ± 0.051,-0.09 ± 0.03,-0.063 ± 0.035,-0.0015 ± 0.032,-0.0125 ± 0.081,-0.025 ± 0.041,0.0055 ± 0.04,0.0045 ± 0.0064,0.0325 ± 0.035,0.015 ± 0.031,0 ± 0.017,-0.0345 ± 0.0021,-0.0795 ± 0.0035
BE3C:PAI-I,0.0905 ± 0.025,0.109 ± 0.016,0.098 ± 0.028,0.0635 ± 0.054,-0.0025 ± 0.005,0.0015 ± 0.0035,0.0025 ± 0.0035,-0.0995 ± 0.057,-0.092 ± 0.044,-0.124 ± 0.012,0.016 ± 0.044,0.047 ± 0.057,0.0385 ± 0.06,0.033 ± 0.078,0.044 ± 0.014,0.126 ± 0.026,0.0955 ± 0.011,0.0145 ± 0.012,-0.0035 ± 0.021,-0.072 ± 0.018
BE3C:SRB,0.0135 ± 0.013,0.003 ± 0.0014,0.002 ± 0.0014,0.0115 ± 0.0064,0.0035 ± 0.005,0.0005 ± 0.0035,-0.0035 ± 0.0092,-0.003 ± 0.0042,0 ± 0.0014,0.003 ± 0.0099,0.015 ± 0.014,-0.005 ± 0.0099,-0.0005 ± 0.0021,-0.0055 ± 0.0064,-0.007 ± 0.0071,-0.017,-0.025 ± 0.0085,-0.004 ± 0.0057,-0.0055 ± 0.00071,-0.0115 ± 0.00071
BE3C:tPA,-0.149 ± 0.029,-0.175 ± 0.013,-0.219 ± 0.062,-0.197 ± 0.0035,-0.003 ± 0.0028,0.004 ± 0.0099,0.0015 ± 0.0064,-0.101 ± 0.047,-0.0935 ± 0.021,-0.0945 ± 0.021,0.023 ± 0.041,0.0415 ± 0.073,0.066 ± 0.1,0.0595 ± 0.086,0.0755 ± 0.021,0.0535 ± 0.0064,-0.021 ± 0.0099,-0.0145 ± 0.035,-0.0265 ± 0.044,-0.008 ± 0.061
BE3C:uPA,-0.0165 ± 0.005,-0.0125 ± 0.021,-0.036 ± 0.027,-0.051 ± 0.038,-0.002 ± 0.02,-0.0135 ± 0.005,-0.0005 ± 0.0021,0.033 ± 0.027,0.0315 ± 0.016,0.0245 ± 0.012,-0.0055 ± 0.023,-0.004 ± 0.034,-0.0235 ± 0.032,-0.018 ± 0.038,0.006 ± 0.0071,0.0055 ± 0.0035,-0.002 ± 0.0028,-0.0105 ± 0.011,0.0055 ± 0.013,-0.0075 ± 0.0021
CASM3C:CCL2/MCP-1,-0.0825 ± 0.05,-0.105 ± 0.037,-0.113 ± 0.0042,-0.086 ± 0.047,-0.0085 ± 0.0092,-0.0065 ± 0.011,0.015 ± 0.038,-0.0235 ± 0.021,-0.034 ± 0.035,-0.013 ± 0.013,-0.007 ± 0.088,-0.043 ± 0.024,-0.034 ± 0.016,-0.021 ± 0.0028,-0.0095 ± 0.00071,-0.003 ± 0.0057,0.016 ± 0.04,0.0125 ± 0.012,-0.007 ± 0.017,-0.004 ± 0.017
